How the values were obtained:
whole blood = test: Improvement effect on activated state of blood coagulation (activated whole blood clotting time, Hemochron); type: cell-based, rabbit (Japanese White, male); settings: rabbit whole blood; for significant prolonged effect on the activated whole blood clotting time to the control: independent use, 1 μM; for activated clotting time (mean ± S.E.): single application, antiplatelet drug 1 μM, control 218 ± 5.1
Experimental: Citrate blood collected from a rabbit (Japanese White, male) was used for the test as the whole blood after maintaining room temperature for 30-60 minutes. 376 μL of the whole blood, 4 μL of a dimethylsulfoxide and 20 μL of a 250 mM calcium chloride solution were poured into a test tube for measurement of activated whole blood clotting time (Hemochron test tube P214, International Technidyne Corporation). After slight stirring of the mixture, an activated whole blood clotting time was measured by a blood clotting meter (Hemochron 801, International Technidyne Corporation) as the control.

[1] = system: thrombus formation in abdominal aorta of rats; test: Inhibitory effect on thrombus formation (FeCl2-induced abdominal aorta thrombus, total protein content); type: in vivo, rat (Sprague-Dawley, male); settings: rat; for significant inhibitory effects on the thrombus formation compared with group A as control: alone: cilostazol 100 mg/kg oral or compound Id 3 mg/kg subcutaneous; for Total protein amount in thrombus: single application, control 1.52 ± 0.39
Experimental: Rats (Sprague-Dawley rats, male) were divided into four groups of A, B, C and D. 0.5% methylcellulose solution was orally administrated into the rats of groups A and B, and cilostazol (100 mg/kg) was orally administrated into the rats of groups C and D. […] Simultaneously, the all rats of groups A-D were anesthetized by intraperitoneal injection of 5 mL/kg of 20% urethane solution. […] After removing of the filter paper, each rat was left at rest for additional 25 minutes. Then, the abdominal aorta was ligated at both upper and lower ends of the thrombus induction site. All the thrombus adhering to the inside of the excised abdominal aorta were harvested and dissolved in 1 mL of 0.5 N sodium hydroxide solution as the test solution. The total protein content in the test solution was measured using Coomasie Plus Protein Assay Kit (PIERCE Corp.) as the index of the thrombus formation.

| Compound | significant prolonged effect on the activated whole blood clotting time to the control (whole blood) | activated clotting time (mean ± S.E.) (whole blood) | significant inhibitory effects on the thrombus formation compared with group A as control [1] | Total protein amount in thrombus ([1]; cilostazol 100 mg/kg oral, n=3) | Total protein amount in thrombus ([1]; compound Id 3 mg/kg subcutaneous, n=4) |
| --- | --- | --- | --- | --- | --- |
| CC(=O)Oc1ccccc1C(=O)O [Aspirin, aspirin] | showed a significant prolonged effect | 215 ± 16.3 s | – | – | – |
| O=C1CCc2cc(OCCCCc3nnnn3C3CCCCC3)ccc2N1 [Cilostazol, cilostazol] | showed a significant prolonged effect | 205 ± 5.8 s | not observed | 1.39 ± 0.45 mg | – |
| CS(=O)(=O)c1ccccc1-c1ccc(CCNS(=O)(=O)c2cc(C(=N)N)ccc2O)c(OCC(=O)O)c1 [Compound Id] | – | – | not observed | – | 0.94 ± 0.30 mg |
| OCCN(CCO)c1nc(N2CCCCC2)c2nc(N(CCO)CCO)nc(N3CCCCC3)c2n1 [Dipyridamole, dipyridamole] | showed a significant prolonged effect | 210 ± 10.9 s | – | – | – |
